The text below walks through data of patent US11673866B2, “Estrogen receptor beta ligands for the prevention and treatment of multiple sclerosis (MS) and other demyelinating, inflammatory and neurodegenerative diseases” (The Board of Trustees of the University of Illinois, priority 2018, dated 2023).

One assay deals with ERβ (Homo sapiens, UniProt Q92731). As to the kind of experiment: Relative binding affinity (RBA) to estrogen receptor beta, radiometric measurement. Particulars: for β/α Ratio: ratio of RBA ERβ to RBA ERα; for RBA ERβ: relative value to 100% for E2 by radiometric measurement.
ERβ, sequence (Q92731 whole entry, species assumed): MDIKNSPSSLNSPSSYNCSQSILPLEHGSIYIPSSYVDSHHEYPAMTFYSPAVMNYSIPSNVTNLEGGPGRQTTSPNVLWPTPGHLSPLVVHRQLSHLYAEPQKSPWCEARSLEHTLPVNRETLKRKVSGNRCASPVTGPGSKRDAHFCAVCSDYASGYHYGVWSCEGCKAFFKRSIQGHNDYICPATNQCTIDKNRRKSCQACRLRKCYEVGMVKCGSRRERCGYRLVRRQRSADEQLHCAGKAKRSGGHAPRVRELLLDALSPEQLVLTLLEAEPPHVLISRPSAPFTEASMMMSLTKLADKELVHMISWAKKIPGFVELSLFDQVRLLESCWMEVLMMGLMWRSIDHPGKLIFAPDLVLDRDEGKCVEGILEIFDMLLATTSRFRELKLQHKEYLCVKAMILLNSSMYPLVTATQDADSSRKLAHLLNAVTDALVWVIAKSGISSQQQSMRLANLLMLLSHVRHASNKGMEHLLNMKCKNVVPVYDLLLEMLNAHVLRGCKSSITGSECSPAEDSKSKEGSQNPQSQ
The target in a further assay is T1, ERα (Homo sapiens, UniProt P03372).
T1 sequence (P03372 1-595): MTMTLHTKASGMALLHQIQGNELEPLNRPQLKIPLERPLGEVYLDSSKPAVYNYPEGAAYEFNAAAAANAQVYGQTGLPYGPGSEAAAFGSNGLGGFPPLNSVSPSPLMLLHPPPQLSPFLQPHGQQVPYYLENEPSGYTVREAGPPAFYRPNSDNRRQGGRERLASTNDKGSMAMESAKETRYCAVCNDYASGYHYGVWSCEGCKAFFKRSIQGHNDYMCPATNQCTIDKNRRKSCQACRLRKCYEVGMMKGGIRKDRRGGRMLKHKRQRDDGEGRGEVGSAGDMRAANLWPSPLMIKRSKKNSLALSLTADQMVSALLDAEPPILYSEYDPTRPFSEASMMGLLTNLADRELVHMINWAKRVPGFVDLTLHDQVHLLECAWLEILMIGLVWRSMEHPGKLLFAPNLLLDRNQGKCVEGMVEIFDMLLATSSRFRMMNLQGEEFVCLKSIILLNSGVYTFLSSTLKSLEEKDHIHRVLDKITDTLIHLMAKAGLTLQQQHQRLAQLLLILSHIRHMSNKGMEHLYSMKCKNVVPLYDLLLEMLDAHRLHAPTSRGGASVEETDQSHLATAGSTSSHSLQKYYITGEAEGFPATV
As to the kind of experiment: Relative binding affinity (RBA) to estrogen receptor alpha, radiometric measurement. Conditions: relative value to 100% for E2 by radiometric measurement.

The test system of assay [1] is primary oligodendrocyte and oligodendrocyte precursor cells (OL/OPCs). Kind of assay: Primary OPC culture differentiation (MBP immunostaining, DAPI). It is filed as cell-based, mouse. Details: key to %MBP+/DAPI: *: The level of production of myelin basic protein (MBP); ---: reduction of MBP. Conditions: level of production of myelin basic protein in primary OPC/OL cultures. As for the experimental part:
Primary OPC Cultures: Primary OPCs, isolated from postnatal day P1 C57BL/6 male and female mouse cortices as described previously, were treated with 10 nM ligands in differentiating medium for 3 days (Tiwari-Woodruff et al., 2001; Tiwari-Woodruff et al., 2006). Primary OPC were cultured into 8-well chamber slides (three wells per condition, 2.5×10^5 cells/well) for three days to attach and […] in differentiating media (consisting of DMEM-F12 with triiodothyronine- and thyroxine-containing Sato as well as penicillin, streptomycin, insulin, N-acetyl-L-cysteine, forskolin, ciliary neurotrophic factor, neurotrophin-3, and platelet-derived growth factor receptor α (Tiwari-Woodruff et al., 2001)). A positive control (IndCl), a negative control (Vehicle consisting of the media+EtOH mixture used to dissolve IndCl), and a normal control (differentiating media alone) were used for comparison. At the end of the treatment period, cells were fixed, stained by immunocytochemistry (primary antibody polyclonal chicken myelin basic protein (MBP, Millipore AB9348), shown in green and co-stained with nuclear stain—DAPI shown in blue), and imaged with an Olympus BX61 confocal microscope (Olympus America Inc., Center Valley, Pa.) at 10× magnification (3 images per well). Cells were counted using the ImageJ multipoint tool, and counts were then divided by the image area (mm^2). Average cell density for each condition was then divided by the normal condition cell density. Analysis of OL differentiation consisted of counting the number of MBP+ cells and process extensions that were longer than the respective cell-body diameter and tracking the number of highly branched MBP+ cells (with three or more processes) (Monnerie et al., 2017). Statistics were performed using GraphPad Prism 6 Software (La Jolla, Calif.). One-way ANOVA with Tukey's posthoc test for multiple comparisons was used to generate p-values, and data are presented as mean SEM (with α≤0.05).
Primary OPC cultures were used as a convenient cell-based assay to characterize the proliferation and/or differentiation effects of the new IndCl analogues and to select those most suitable for more extensive studies to be done in comparison with the parental ligand, IndCl. 48 hours after plating OPCs, one of seven IndCl analogues (FIG. 1A) was added to differentiating media at a concentration of 10 nM (De Angelis et al., 2005; Saijo et al., 2011). OPCs were allowed to differentiate for 3 days in the presence of IndCl or analogues, at which point they were fixed, immunostained for OPC/OL markers, and quantified. […] The total number of cells in culture was not altered by any treatment (FIGS. 1B and 1D).

Take `OCc1c2cc(O)ccc2nn1-c1ccc(O)cc1` [Ind-CH2OH, 3-(hydroxymethyl)-2-(4-hydroxyphenyl)-2H-indazol-5-ol]: on ERβ, the “β/α Ratio” value was determined as 35.8 and the “RBA ERβ” value came to 1.43%. The “RBA ERα” value at ERα was 0.04%.

With `Oc1ccc(-c2c3cc(O)ccc3nn2-c2ccc(O)cc2)cc1` [Ind-Ph-p-OH, 4,4′-(5-hydroxy-2H-indazole-2,3-diyl)diphenol], at ERβ, the “β/α Ratio” value amounted to 7.8 and the “RBA ERβ” value amounted to 0.63%. Further, the “RBA ERα” value on ERα is 0.08%.

Turning to `Oc1ccc(-n2nc3ccc(O)cc3c2C2SCCS2)cc1` [Ind-Thiolane, 3-(1,3-dithiolan-2-yl)-2-(4-hydroxyphenyl)-2H-indazol-5-ol], at ERβ, the “β/α Ratio” value is 10.3 and the “RBA ERβ” value worked out at 0.31%. Also, at ERα, the “RBA ERα” value is reported as 0.03%.

With `C=CCc1c2cc(O)ccc2nn1-c1ccc(O)cc1Br` [Ind-allyl-o-Br, 3-allyl-2-(2-bromo-4-hydroxyphenyl)-2H-indazol-5-ol], on ERβ, the “β/α Ratio” value was determined as 2.5 and the “RBA ERβ” value was 0.86%. At ERα, the “RBA ERα” value is 0.34%.

`C=Cc1c2cc(O)ccc2nn1-c1ccc(O)cc1Br` [Ind-vinyl-o-Br, 2-(2-bromo-4-hydroxyphenyl)-3-vinyl-2H-indazol-5-ol]: on ERβ, the “β/α Ratio” value is given as 14.9 and the “RBA ERβ” value came out at 8.04%. For the same molecule, the “RBA ERα” value at ERα came to 0.54%.

Turning to `Oc1ccc(-n2nc3ccc(O)cc3c2Br)c(Br)c1` [IndBr-o-Br, 3-bromo-2-(2-bromo-4-hydroxyphenyl)-2H-indazol-5-ol], on ERβ, the “β/α Ratio” value was determined as 4.2 and the “RBA ERβ” value is given as 5.84%. For the same molecule, the “RBA ERα” value at ERα came to 1.40%. Also, the “%MBP+/DAPI” value in assay [1] is recorded as “*”.

`Oc1ccc(-n2nc3ccc(O)cc3c2Br)c(Cl)c1` [IndBr-o-Cl, 3-bromo-2-(2-chloro-4-hydroxyphenyl)-2H-indazol-5-ol]: at ERβ, the “β/α Ratio” value is reported as 19.9 and the “RBA ERβ” value was 16.12%. In addition, on ERα, the “RBA ERα” value came to 0.81%.

With `Oc1ccc(-n2nc3ccc(O)cc3c2Br)c(I)c1` [IndBr-o-I, 3-bromo-2-(4-hydroxy-2-iodophenyl)-2H-indazol-5-ol], at ERβ, the “β/α Ratio” value was determined as 12.8 and the “RBA ERβ” value is recorded as 6.28%. Further, at ERα, the “RBA ERα” value is 0.49%.

Consider `Oc1ccc2nn(-c3ccc(O)c(F)c3)c(Cl)c2c1` [IndCl-m-F, 3-chloro-2-(3-fluoro-4-hydroxyphenyl)-2H-indazol-5-ol], for which, at ERβ, the “β/α Ratio” value is on record as 75.7 and the “RBA ERβ” value is recorded as 10.5%. Besides, the “RBA ERα” value on ERα is 0.14%.

In the case of `Cc1cc(-n2nc3ccc(O)cc3c2Cl)ccc1O` [IndCl-m-Me, 3-chloro-2-(4-hydroxy-3-methylphenyl)-2H-indazol-5-ol], at ERβ, the “β/α Ratio” value was 5.8 and the “RBA ERβ” value was 0.74%. In addition, the “RBA ERα” value at ERα is 0.13%.

For the molecule `Oc1ccc(-n2nc3ccc(O)cc3c2Cl)c(Br)c1` [IndCl-o-Br, 2-(2-bromo-4-hydroxyphenyl)-3-chloro-2H-indazol-5-ol], on ERβ, the “β/α Ratio” value is recorded as 17.9 and the “RBA ERβ” value is 8.31%. The “RBA ERα” value at ERα came to 0.47%. In assay [1], the “%MBP+/DAPI” value is reported as “*”.

As to `Oc1ccc(-n2nc3ccc(O)cc3c2Cl)c(C(F)(F)F)c1` [IndCl-o-CF3, 3-chloro-2-(4-hydroxy-2-(trifluoromethyl)phenyl)-2H-indazol-5-ol], at ERβ, the “β/α Ratio” value is listed as 3.7 and the “RBA ERβ” value is given as 10.39%. For the same molecule, at ERα, the “RBA ERα” value stood at 2.84%.

On to `OCc1cc(O)ccc1-n1nc2ccc(O)cc2c1Cl` [IndCl-o-CH2OH, 3-chloro-2-(4-hydroxy-2-(hydroxymethyl)phenyl)-2H-indazol-5-ol], for which, on ERβ, the “β/α Ratio” value was determined as 18.0 and the “RBA ERβ” value came to 2.34%. Also, the “RBA ERα” value on ERα was determined as 0.13%.

For the molecule `N#Cc1cc(O)ccc1-n1nc2ccc(O)cc2c1Cl` [IndCl-o-CN, 2-(3-chloro-5-hydroxy-2H-indazol-2-yl)-5-hydroxybenzonitrile], at ERβ, the “β/α Ratio” value came out at 15.7 and the “RBA ERβ” value stood at 0.77%. Moreover, at ERα, the “RBA ERα” value amounted to 0.05%. For the same molecule, the “%MBP+/DAPI” value in assay [1] was “---”.

`Oc1cc(Cl)c(-n2nc3ccc(O)c(Cl)c3c2Cl)c(Cl)c1` [IndCl-o-Cl2-4-Cl, 3,4-dichloro-2-(2,6-dichloro-4-hydroxyphenyl)-2H-indazol-5-ol]: at ERβ, the “β/α Ratio” value is 21.1 and the “RBA ERβ” value came to 2.3%. Further, the “RBA ERα” value on ERα worked out at 0.11%.

Take `Oc1ccc(-n2nc3ccc(O)cc3c2Cl)c(F)c1` [IndCl-o-F, 3-chloro-2-(2-fluoro-4-hydroxyphenyl)-2H-indazol-5-ol]: on ERβ, the “β/α Ratio” value came out at 52.4 and the “RBA ERβ” value came to 9.79%. Also, the “RBA ERα” value at ERα worked out at 0.19%.

As for `Oc1ccc(-n2nc3ccc(O)cc3c2Cl)c(C2SCCS2)c1` [IndCl-o-Thiolane, 2-(2-(1,3-dithiolan-2-yl)-4-hydroxyphenyl)-3-chloro-2H-indazol-5-ol], on ERβ, the “β/α Ratio” value is on record as 13.0 and the “RBA ERβ” value was found to be 2.34%. The “RBA ERα” value on ERα stood at 0.18%.

As to `Oc1ccc(-n2nc3ccc(O)cc3c2F)c(Cl)c1` [IndF-o-Cl, 2-(2-chloro-4-hydroxyphenyl)-3-fluoro-2H-indazol-5-ol], on ERβ, the “β/α Ratio” value is reported as 4.0 and the “RBA ERβ” value came out at 1.09%. For the same molecule, the “RBA ERα” value at ERα is given as 0.27%.

On to `Oc1ccc(-n2nc3ccc(O)cc3c2F)c(I)c1` [IndF-o-I, 3-fluoro-2-(4-hydroxy-2-iodophenyl)-2H-indazol-5-ol], for which, on ERβ, the “β/α Ratio” value is 2.3 and the “RBA ERβ” value is on record as 0.61%. Also, at ERα, the “RBA ERα” value is reported as 0.27%.

For `Oc1cc(Cl)c(-n2cc3cc(O)ccc3n2)c(Cl)c1` [IndH-o-Cl2, 2-(2,6-dichloro-4-hydroxyphenyl)-2H-indazol-5-ol], at ERβ, the “β/α Ratio” value is 9.3 and the “RBA ERβ” value is listed as 0.82%. Further, the “RBA ERα” value on ERα was found to be 0.088%.

`Oc1cc(F)c(-n2cc3cc(O)ccc3n2)c(F)c1` [IndH-o-F2, 2-(2,6-difluoro-4-hydroxyphenyl)-2H-indazol-5-ol]: on ERβ, the “β/α Ratio” value was 2.0 and the “RBA ERβ” value stood at 0.06%. Also, on ERα, the “RBA ERα” value was 0.03%.

For the molecule `Oc1ccc(-n2nc3ccc(O)cc3c2I)c(Br)c1` [IndI-o-Br, 2-(2-bromo-4-hydroxyphenyl)-3-iodo-2H-indazol-5-ol], on ERβ, the “β/α Ratio” value was found to be 5.3 and the “RBA ERβ” value is listed as 6.64%. The “RBA ERα” value on ERα turned out to be 1.25%.

`Oc1ccc(-n2nc3ccc(O)cc3c2I)c(Cl)c1` [IndI-o-Cl, 2-(2-chloro-4-hydroxyphenyl)-3-iodo-2H-indazol-5-ol]: at ERβ, the “β/α Ratio” value amounted to 10.5 and the “RBA ERβ” value is reported as 4.93%. In addition, the “RBA ERα” value on ERα amounted to 0.47%.

Take `Oc1ccc(-n2nc3ccc(O)cc3c2I)c(I)c1` [IndI-o-I, 2-(4-hydroxy-2-iodophenyl)-3-iodo-2H-indazol-5-ol]: at ERβ, the “β/α Ratio” value amounted to 6.7 and the “RBA ERβ” value is on record as 2.5%. The “RBA ERα” value at ERα is reported as 0.37%.

Take `Cc1cc(O)ccc1-n1nc2ccc(O)cc2c1I` [IndI-o-Me, 2-(4-hydroxy-2-methylphenyl)-3-iodo-2H-indazol-5-ol]: on ERβ, the “β/α Ratio” value was 7.0 and the “RBA ERβ” value is reported as 9.64%. Also, on ERα, the “RBA ERα” value amounted to 1.38%.
